Reference: patent US20090192176A1, “1H-PYRAZOLO[3,4-D]PYRIMIDINE, PURINE, 7H-PURIN-8(9H)-ONE, 3H-[1,2,3]TRIAZOLO[4,5-D]PYRIMIDINE, AND THIENO[3,2-D]PYRIMIDINE COMPOUNDS, THEIR USE AS mTOR KINASE AND PI3 KINASE INHIBITORS, AND THEIR SYNTHESES” (Wyeth, priority 2008, published 2009)

Columns and labels:
Format in all cases: biochemical
PI3 Kinase γ = PI3 Kinase γ (Homo sapiens, UniProt P48736); experiment: Fluorescence polarization assay for PI3K
Experimental: (§1) Fluorescence Polarization Assay for PI3K
(§2) This assay is used to determine the IC50 of compounds of the present invention as it identifies inhibitors of PI3 kinase by measuring inhibition.
(§3) Reaction Buffer: 20 mM HEPES, pH 7.5, 2 mM MgCl2, 0.05% CHAPS; and 0.01% BME (added fresh) Stop/Detection Buffer: 100 mM HEPES, pH 7.5, 4 mM EDTA, 0.05% CHAPS; ATP 20 mM in water; PIP2 (diC8, cat# P-4508) 1 mM in water (MW=856.5); GST-GRP 1.75 mg/mL or 1.4 mg/mL in 10% glycerol; Red detector (TAMRA) 2.5 μM; Plate: Nunc 384 well black polypropylene fluorescence plate.
(§4) The assay is run by placing 5 μL of diluted enzyme per well, then 5 μL of diluted compound (or 9.5 μL enzyme then 0.5 μL compound in DMSO) is added and mixed. Then, 10 μL substrate is added to start the reaction. The samples are incubated 30-60 minutes, then the reaction is stopped by adding 20 μL stop/detector mix. PI3K is diluted with reaction buffer (e.g., 5 μL or 7.5 μL PI3K into 620 μL reaction buffer), and 5 μL of diluted enzyme is used per well. 5 μL reaction buffer or drug diluted in buffer (e.g., 4 μL/100 so final DMSO is 1% in reaction) is added to each. Pipetting up and down mixes the samples. Alternatively, the enzyme can be diluted to 1215 μL. In this case 9.8 μL is added per well and 0.2 μL compound is added in DMSO. To prepare 1 mL of substrate solution, 955 μL reaction buffer, 40 μL PIP2, and 2.5 μL ATP are mixed. 10 μL of substrate is added to each well to start the reaction.
(§5) Stop/detector mix is prepared by mixing 4 μL Red detector and 1.6 μL or 2.0 μL GST-GRP with 1 mL Stop buffer, which results in 10 nM probe and 70 nM GST-GRP). 20 μL of the stop/detector mix is added to each well to stop the reaction. The plates are read after 30-90 minutes keeping the red probe solutions dark. For the zero time point, stop/detector mix is added to the enzyme just before adding substrate. For an extra control, stop/detector mix is added to buffer (no enzyme) and substrate or to just buffer (no substrate). […] The recommended reaction has 0.06 μL per 20 μL (0.015 μg/20 μL) or 0.01125 μg/15 μL or 0.75 μg/mL. Plates are read on machines with filters for Tamra. The units are mP with no enzyme controls reading app 190-220 mP units. Fully active enzyme reduces fluorescence polarization down to 70-100 mP after 30 minutes. An active compound raises the mP values halfway to control or to 120-150 mP units.

PI3 Kinase α = PI3 Kinase α (Homo sapiens, UniProt P42336); experiment: Fluorescence polarization assay for PI3K
Experimental: as §1, §2, §3, §4, §5

Human mTOR = biological target: T1, Human mTOR (Homo sapiens, UniProt P42345); experiment: mTOR kinase assay (DELFIA format, purified enzyme); conditions: His6-S6K substrate, read-out: TOR Kinase IC50
T1 construct: FLAG
Experimental: mTOR Kinase Assay Methods
Human mTOR assays (See Toral-Barza, et al. Biochem Biophys. Res. Commun. 2005 Jun. 24; 332(1):304-10) with purified enzyme are performed in 96-well plates by DELFIA format as follows. Enzymes are first diluted in kinase assay buffer (10 mM HEPES (pH 7.4), 50 mM NaCl, 50 mM β-glycerophosphate, 10 mM MnCl2, 0.5 mM DTT, 0.25 mM microcystin LR, and […]). To each well, 12 μL of the diluted enzyme is mixed briefly with 0.5 μL test inhibitor or control vehicle dimethylsulfoxide (DMSO). The kinase reaction is initiated by adding 12.5 μL kinase assay buffer containing ATP and His6-S6K to give a final reaction volume of 25 μL containing 800 ng/mL FLAG-TOR, […] and […]. The reaction plate is incubated for 2 hours (linear at 1-6 hours) at room temperature with gentle shaking and then terminated by adding 25 μL Stop buffer (20 mM HEPES (pH 7.4), 20 mM EDTA, 20 mM EGTA). The DELFIA detection of the phosphorylated (Thr-389) His6-S6K is performed at room temperature using a monoclonal anti-P(T389)-p70S6K antibody (1A5, Cell Signaling) labeled with Europium-N1-ITC (Eu) (10.4 Eu per antibody, PerkinElmer). The DELFIA Assay buffer and Enhancement solution can be purchased from PerkinElmer. 45 μL of the terminated kinase reaction mixture is transferred to a MaxiSorp plate (Nunc) containing 55 μL PBS. The His6-S6K is allowed to attach for 2 hours after which the wells are aspirated and washed once with PBS. 100 μL of DELFIA Assay buffer with 40 ng/mL Eu-P(T389)-S6K antibody is added. The antibody binding is continued for 1 hour with gentle agitation. The wells are then aspirated and washed 4 times with PBS containing 0.05% Tween-20 (PBST). 100 μL of DELFIA Enhancement solution is added to each well and the plates are read in a PerkinElmer Victor model plate reader. Data obtained is used to calculate enzymatic activity and enzyme inhibition by potential inhibitors.

Sequence of PI3 Kinase α (P42336 whole entry): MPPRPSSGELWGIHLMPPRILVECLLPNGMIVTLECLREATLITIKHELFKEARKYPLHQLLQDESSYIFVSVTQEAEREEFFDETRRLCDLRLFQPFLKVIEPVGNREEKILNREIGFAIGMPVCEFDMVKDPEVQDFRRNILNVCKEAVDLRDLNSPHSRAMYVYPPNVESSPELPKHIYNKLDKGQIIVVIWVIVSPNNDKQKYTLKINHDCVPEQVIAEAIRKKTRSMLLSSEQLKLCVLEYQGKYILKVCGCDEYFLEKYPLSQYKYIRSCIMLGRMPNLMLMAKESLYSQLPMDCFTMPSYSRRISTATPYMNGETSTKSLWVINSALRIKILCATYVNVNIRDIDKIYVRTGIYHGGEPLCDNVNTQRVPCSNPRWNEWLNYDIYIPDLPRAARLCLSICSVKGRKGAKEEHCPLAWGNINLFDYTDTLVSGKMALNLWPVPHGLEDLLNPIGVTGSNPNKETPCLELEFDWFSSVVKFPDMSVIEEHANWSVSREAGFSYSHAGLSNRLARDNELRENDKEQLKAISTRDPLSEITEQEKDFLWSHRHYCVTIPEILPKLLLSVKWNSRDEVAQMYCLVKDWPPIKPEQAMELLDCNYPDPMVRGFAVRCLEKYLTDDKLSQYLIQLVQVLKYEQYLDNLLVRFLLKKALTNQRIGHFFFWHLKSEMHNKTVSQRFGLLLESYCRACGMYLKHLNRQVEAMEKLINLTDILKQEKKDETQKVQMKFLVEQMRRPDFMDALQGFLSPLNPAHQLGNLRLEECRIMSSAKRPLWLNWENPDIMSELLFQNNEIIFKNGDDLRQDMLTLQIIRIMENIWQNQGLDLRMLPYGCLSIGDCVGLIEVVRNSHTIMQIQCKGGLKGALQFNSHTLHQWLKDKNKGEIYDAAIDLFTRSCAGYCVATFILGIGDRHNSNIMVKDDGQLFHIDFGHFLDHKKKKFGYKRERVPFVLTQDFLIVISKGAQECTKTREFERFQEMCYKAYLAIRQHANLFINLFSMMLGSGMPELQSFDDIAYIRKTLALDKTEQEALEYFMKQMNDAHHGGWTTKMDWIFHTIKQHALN
Sequence of PI3 Kinase α (P27986 whole entry partner): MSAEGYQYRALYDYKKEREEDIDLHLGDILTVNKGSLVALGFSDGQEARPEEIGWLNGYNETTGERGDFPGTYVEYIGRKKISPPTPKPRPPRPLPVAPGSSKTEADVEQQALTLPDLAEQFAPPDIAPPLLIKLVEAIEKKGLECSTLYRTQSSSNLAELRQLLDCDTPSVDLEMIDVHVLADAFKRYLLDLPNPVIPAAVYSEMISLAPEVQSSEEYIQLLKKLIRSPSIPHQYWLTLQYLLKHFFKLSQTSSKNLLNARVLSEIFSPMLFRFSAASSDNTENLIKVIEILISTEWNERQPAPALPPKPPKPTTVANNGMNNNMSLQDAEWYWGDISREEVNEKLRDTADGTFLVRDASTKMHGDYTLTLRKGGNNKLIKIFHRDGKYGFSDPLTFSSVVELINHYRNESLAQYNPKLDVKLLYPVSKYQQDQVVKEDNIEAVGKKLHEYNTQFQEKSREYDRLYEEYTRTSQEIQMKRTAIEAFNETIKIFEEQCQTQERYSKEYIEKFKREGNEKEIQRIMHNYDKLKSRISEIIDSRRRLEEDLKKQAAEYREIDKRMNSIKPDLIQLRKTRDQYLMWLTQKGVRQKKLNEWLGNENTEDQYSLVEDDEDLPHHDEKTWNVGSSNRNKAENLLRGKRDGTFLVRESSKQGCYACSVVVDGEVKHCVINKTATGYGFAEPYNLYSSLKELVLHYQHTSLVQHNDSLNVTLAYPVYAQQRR
Sequence of PI3 Kinase γ (P48736 whole entry): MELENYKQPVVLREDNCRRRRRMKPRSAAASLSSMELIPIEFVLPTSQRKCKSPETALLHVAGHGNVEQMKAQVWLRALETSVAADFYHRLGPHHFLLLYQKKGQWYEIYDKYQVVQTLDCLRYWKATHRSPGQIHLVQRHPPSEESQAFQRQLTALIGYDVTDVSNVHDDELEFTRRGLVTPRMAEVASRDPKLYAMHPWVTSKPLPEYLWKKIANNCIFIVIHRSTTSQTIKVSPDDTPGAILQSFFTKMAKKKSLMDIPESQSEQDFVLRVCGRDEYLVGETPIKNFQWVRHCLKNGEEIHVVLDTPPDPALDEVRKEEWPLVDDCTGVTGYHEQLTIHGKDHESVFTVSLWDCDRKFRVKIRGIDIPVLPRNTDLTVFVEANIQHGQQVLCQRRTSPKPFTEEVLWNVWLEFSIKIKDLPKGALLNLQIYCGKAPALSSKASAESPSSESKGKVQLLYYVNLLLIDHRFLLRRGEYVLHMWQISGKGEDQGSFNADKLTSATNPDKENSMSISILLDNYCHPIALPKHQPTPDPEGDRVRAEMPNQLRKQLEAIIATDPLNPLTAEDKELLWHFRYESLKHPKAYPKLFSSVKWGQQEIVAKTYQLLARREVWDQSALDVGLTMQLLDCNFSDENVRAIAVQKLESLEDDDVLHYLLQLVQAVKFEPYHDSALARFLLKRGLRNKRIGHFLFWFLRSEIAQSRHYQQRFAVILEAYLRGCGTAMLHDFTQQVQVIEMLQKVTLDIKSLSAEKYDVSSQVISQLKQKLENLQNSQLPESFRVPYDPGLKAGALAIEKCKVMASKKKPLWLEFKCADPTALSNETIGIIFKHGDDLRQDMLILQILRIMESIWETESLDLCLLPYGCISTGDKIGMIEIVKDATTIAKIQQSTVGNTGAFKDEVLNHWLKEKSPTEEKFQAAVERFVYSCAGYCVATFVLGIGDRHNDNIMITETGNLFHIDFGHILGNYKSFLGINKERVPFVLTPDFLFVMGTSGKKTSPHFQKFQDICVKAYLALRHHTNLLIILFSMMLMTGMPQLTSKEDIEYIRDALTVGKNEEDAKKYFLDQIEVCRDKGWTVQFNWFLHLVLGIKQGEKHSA

Row | Compound | IC50 (PI3 Kinase γ) [nM] | IC50 (PI3 Kinase α) [nM] | IC50 (Human mTOR) [nM]
1 | Oc1cccc(-c2nc(C3=CCOCC3)c3ncn(CCN4CCCCC4)c3n2)c1 [Compound 46, 3-[6-(3,6-dihydro-2H-pyran-4-yl)-9-(2-piperidin-1-ylethyl)-9H-purin-2-yl]phenol] | 15000 | 1350 | > 4000
2 | Cc1ccc(CN2CCC(n3cnc4c(C5=CCOCC5)nc(-c5cccc(O)c5)nc43)CC2)cc1 [Compound 18, 3-{6-(3,6-dihydro-2H-pyran-4-yl)-9-[1-(4-methylbenzyl)piperidin-4-yl]-9H-purin-2-yl}phenol] | 12000 | 12000 | 2100
3 | Oc1cccc(-c2nc(C3=CCOCC3)c3ncn(C4CCN(Cc5cnc[nH]5)CC4)c3n2)c1 [Compound 17, 3-{6-(3,6-dihydro-2H-pyran-4-yl)-9-[1-(1H-imidazol-5-ylmethyl)piperidin-4-yl]-9H-purin-2-yl}phenol] | 2580 | 1060 | 1200
4 | Oc1cncc(-c2nc(C3=CCOCC3)c3ncn(C4CCN(Cc5cccnc5)CC4)c3n2)c1 [Compound 29, 5-{6-(3,6-dihydro-2H-pyran-4-yl)-9-[1-(pyridin-3-ylmethyl)piperidin-4-yl]-9H-purin-2-yl}pyridin-3-ol] | 2490 | 525 | 2400
5 | OCc1cccc(-c2nc(C3=CCOCC3)c3ncn(C4CCN(Cc5ccccc5)CC4)c3n2)c1 [Compound 21, {3-[9-(1-benzylpiperidin-4-yl)-6-(3,6-dihydro-2H-pyran-4-yl)-9H-purin-2-yl]phenyl}methanol] | 4360 | 952 | 3500
6 | OCc1cccc(-c2nc(C3=CCOCC3)c3ncn(C4CCN(Cc5ccc(F)nc5)CC4)c3n2)c1 [Compound 22, {3-[6-(3,6-dihydro-2H-pyran-4-yl)-9-{1-[(6-fluoropyridin-3-yl)methyl]piperidin-4-yl}-9H-purin-2-yl]phenyl}methanol] | 5400 | 1050 | 1900
7 | OCc1cccc(-c2nc(C3=CCOCC3)c3ncn(CCN4CCCCC4)c3n2)c1 [Compound 45, {3-[6-(3,6-dihydro-2H-pyran-4-yl)-9-(2-piperidin-1-ylethyl)-9H-purin-2-yl]phenyl}methanol] | 9000 | 1350 | > 4000
8 | Oc1cncc(-c2nc(C3=CCOCC3)c3ncn(C4CCN(Cc5ccc(Br)nc5)CC4)c3n2)c1 [Compound 30, 5-[9-{1-[(6-bromopyridin-3-yl)methyl]piperidin-4-yl}-6-(3,6-dihydro-2H-pyran-4-yl)-9H-purin-2-yl]pyridin-3-ol] | 2470 | 275 | 2000
9 | Oc1cccc(-c2nc(C3=CCOCC3)c3ncn(C4CCN(Cc5ccc(N6CCOCC6)nc5)CC4)c3n2)c1 [Compound 14, 3-[6-(3,6-dihydro-2H-pyran-4-yl)-9-{1-[(6-morpholin-4-ylpyridin-3-yl)methyl]piperidin-4-yl}-9H-purin-2-yl]phenol] | > 10000 | 1490 | 860
10 | OCc1cccc(-c2nc(C3=CCOCC3)c3ncn(C4CCN(Cc5cccnc5)CC4)c3n2)c1 [Compound 23, (3-{6-(3,6-dihydro-2H-pyran-4-yl)-9-[1-(pyridin-3-ylmethyl)piperidin-4-yl]-9H-purin-2-yl}phenyl)methanol] | 7370 | 1490 | 3800
11 | Oc1cccc(-c2nc(C3=CCOCC3)c3ncn(C4CCN(Cc5ccc(Br)nc5)CC4)c3n2)c1 [Compound 19, 3-[9-{1-[(6-bromopyridin-3-yl)methyl]piperidin-4-yl}-6-(3,6-dihydro-2H-pyran-4-yl)-9H-purin-2-yl]phenol] | > 10000 | 5000 | 690
12 | Oc1cccc(-c2nc(C3=CCOCC3)c3ncn(C4CCNCC4)c3n2)c1 [Compound 40, 3-[6-(3,6-dihydro-2H-pyran-4-yl)-9-piperidin-4-yl-9H-purin-2-yl]phenol] | 3160 | 540 | 1400

Compounds with a lower IC50 (PI3 Kinase γ), results first:

Row | IC50 (PI3 Kinase γ) [nM] | IC50 (PI3 Kinase α) [nM] | IC50 (Human mTOR) [nM] | Compound
13 | 719 | 437 | 1600 | Oc1cncc(-c2nc(C3=CCOCC3)c3ncn(C4CCN(Cc5ccc(Cl)nc5)CC4)c3n2)c1 [Compound 37, 5-[9-{1-[(6-chloropyridin-3-yl)methyl]piperidin-4-yl}-6-(3,6-dihydro-2H-pyran-4-yl)-9H-purin-2-yl]pyridin-3-ol]
14 | 543 | 152 | 190 | O=c1[nH]c2nc(-c3cccc(O)c3)nc(C3=CCOCC3)c2[nH]1 [Compound 38, 6-(3,6-dihydro-2H-pyran-4-yl)-2-(3-hydroxyphenyl)-7,9-dihydro-8H-purin-8-one]
15 | 819 | 524 | 1300 | O=c1[nH]c2nc(-c3cccc(CO)c3)nc(C3=CCOCC3)c2[nH]1 [Compound 39, 6-(3,6-dihydro-2H-pyran-4-yl)-2-[3-(hydroxymethyl)phenyl]-7,9-dihydro-8H-purin-8-one]
16 | 1610 | 2420 | 14000 | 7,9-dibenzyl-6-(3,6-dihydro-2H-pyran-4-yl)-2-(3-hydroxyphenyl)-7,9-dihydro-8H-purin-8-one [Compound 66]
17 | 257 | 93 | 32 | Oc1cccc(-c2nc(C3=CCOCC3)c3nn[nH]c3n2)c1 [Compound 48, 3-[7-(3,6-dihydro-2H-pyran-4-yl)-3H-[1,2,3]triazolo[4,5-d]pyrimidin-5-yl]phenol]
18 | 1080 | 3030 | > 4000 | O=C(Nc1ccc(-c2nc(C3=CCOCC3)c3ncn(C4CCN(Cc5ccc[nH]5)CC4)c3n2)cc1)NC1CCN(C(=O)OCc2ccccc2)CC1 [Compound 27, benzyl 4-{[(4-{6-(3,6-dihydro-2H-pyran-4-yl)-9-[1-(1H-pyrrol-2-ylmethyl)piperidin-4-yl]-9H-purin-2-yl}phenyl)carbamoyl]amino}piperidine-1-carboxylate]
19 | 1340 | 228 | 890 | OCc1cccc(-c2nc(C3=CCOCC3)c3ncn(C4CCN(Cc5ccc(Br)nc5)CC4)c3n2)c1 [Compound 25, {3-[9-{1-[(6-bromopyridin-3-yl)methyl]piperidin-4-yl}-6-(3,6-dihydro-2H-pyran-4-yl)-9H-purin-2-yl]phenyl}methanol]
20 | 100 | 78 | 360 | Oc1cncc(-c2nc(C3=CCOCC3)c3nn[nH]c3n2)c1 [Compound 50, 5-[7-(3,6-dihydro-2H-pyran-4-yl)-3H-[1,2,3]triazolo[4,5-d]pyrimidin-5-yl]pyridin-3-ol]
